A value given as a limit tells only on which side of the number the result lay.

Results on two molecules are retold here after patent US6339070B1, “Gene construct encoding a heterologous prodrug-activating enzyme and a cell targeting moiety” (Zeneca Limited, priority 1997, dated 2002).

The subject of experiment [1] is established LoVo tumours produced from non-transfected parental LoVo cells. In words: Anti-tumour activity, fusion gene vector injected intra-tumourally into established LoVo tumours, then PGP. The format is in vivo, athymic nude mice. Particulars: PGP after 1-3 days, vs controls. On the procedure:
Thus non-transfected LoVo cells are injected into athymic nude mice (1×10^7 tumour cells per mouse) and once the tumours are 5-7 mm in diameter the vector containing the antibody-enzyme fusion protein gene is injected intra-tumourally. After 1-3 days to allow the antibody-enzyme fusion protein to be expressed by, and bind to, the LoVo tumour cells, the PGP prodrug is administered as described above.

The subject of experiment [2] is LoVo tumours established from recombinant LoVo cells or recombinant Lovo/Parental LoVo cell mixes. In words: Anti-tumour activity in LoVo tumours expressing the antibody-CPG2 fusion protein. The format is in vivo, athymic nude mice. On the procedure: (§1) Recombinant LoVo (A5B7-CPG2)2 fusion protein expressing tumour cells or mixes of recombinant and parental LoVo cells were injected subcutaneously into athymic nude mice as described in Example 9.
(§2) When the tumours are 5-7 mm in diameter the PGP prodrug is administered i.p. to the mice (3 doses in DMSO/0.15 M sodium bicarbonate buffer at hourly intervals over 2 h in dose ranges of 40-80 mg kg^−1).
(§3) Anti-tumour effects are judged by measuring the length of the tumours in two directions and calculating the tumour volume using the formula
(§4) where D is the larger diameter and d is the smaller diameter of the tumour. Tumour volume may be expressed relative to the tumour volume at the time the PGP prodrug is administered or alternatively the median tumouT volumes may be calculated. The anti-tumour activity is compared to control groups receiving either transfected or non-transfected tumour cells and buffer without PGP prodrug.

For experiment [3], the system named is HCT116 tumours established from transfected HCT116 cells. In words: Anti-tumour activity in HCT116 tumours from transfected cells. The format is in vivo, athymic nude mice. The settings on record: PGP i.p., 3 doses at hourly intervals, 5-25 mg kg^-1, vs PBS. The procedure:
(§5) HCT116 tumour cells transfected with the antibody-CPG2 fusion protein gene or control non-transfected HCT116 tumour cells are injected subcutaneously into athymic nude mice (10^7 tumour cells per mouse). When the turnours are 5-7 mm in diameter the PGP prodrug is administered i.p. to the mice (3 doses at hourly intervals over 2 h in dose ranges of 5-25 mg kg^−1). The anti-tumour effects are judged by measuring the length of the tumours in two directions and calculating the tumour volume using the formula: […]
(§6) where D is the larger diameter and d is the smaller diameter of the tumour.
(§7) Tumour volume is expressed relative to the tumour volume at the time the PGP prodrug is administered. The anti-tumour activity is compared to a control group receiving either transfected or non-transfected tumour cells and PBS ([…], 3.4 mM KCl, 12 mM Na2HPO4 and 1.8 mM KH2PO4, pH 7.2) instead of the PGP prodrug.

The subject of experiment [4] is HCT116 tumours established from non-transfected cells. In words: Anti-tumour activity in HCT116 tumours from non-transfected cells. The format is in vivo, athymic nude mice. Particulars: PGP i.p., 3 doses at hourly intervals, 5-25 mg kg^-1. On the procedure: as §5, §6, §7
Experiment [5] relates to non-transfected LoVo cells. In words: In vitro prodrug killing, non-transfected LoVo cells. The format is cell-based.
Experiment [6] deals with non-transfected HCT116 cells. Format: cell-based. The settings on record: read-out: IC50 (concentration required to inhibit cell growth by 50%).
For experiment [7], the system named is HCT116 cells transfected with the antibody-CPG2 fusion protein gene. Format: cell-based.
For experiment [8], the system named is LoVo cells transfected with an antibody-CPG2 fusion protein gene. In words: In vitro prodrug killing, LoVo cells transfected with antibody-CPG2 fusion protein gene. Format: cell-based.
Experiment [9] has as its system established HCT116 tumours produced from non-transfected HCT116 cells. The experiment can be described thus: Anti-tumour activity, fusion gene vector injected intra-tumourally into established HCT116 tumours, then PGP. The format is in vivo, athymic nude mice. The settings on record: PGP after 1-3 days, vs PBS. On the procedure:
Thus non-transfected HCT116 cells are injected into athymic nude mice (1×10^7 tumour cells per mouse) and once the tumours are 5-7 mm in diameter the vector containing the antibody-enzyme fusion protein gene is injected intra-tumourally. After 1-3 days to allow the antibody-enzyme fusion protein to be expressed by and bind to the HCT116 tumour cells, the PGP prodrug is administered as described above.

The subject of experiment [10] is LoVo tumours established from non-transfected cells. The experiment can be described thus: Anti-tumour activity in LoVo tumours from non-transfected cells. Particulars: PGP i.p., 3 doses at hourly intervals, 40-80 mg kg^-1. Format: in vivo, athymic nude mice. On the procedure: as §1, §2, §3, §4
The target in experiment [11] is T1, human carcinoembryonic antigen (CEA) (human, UniProt P06731 35-685, limits assumed).
T1 construct: CEA as coated on the ELISA plate; also called Carcinoma Embryonic Antigen
T1 sequence (looked up): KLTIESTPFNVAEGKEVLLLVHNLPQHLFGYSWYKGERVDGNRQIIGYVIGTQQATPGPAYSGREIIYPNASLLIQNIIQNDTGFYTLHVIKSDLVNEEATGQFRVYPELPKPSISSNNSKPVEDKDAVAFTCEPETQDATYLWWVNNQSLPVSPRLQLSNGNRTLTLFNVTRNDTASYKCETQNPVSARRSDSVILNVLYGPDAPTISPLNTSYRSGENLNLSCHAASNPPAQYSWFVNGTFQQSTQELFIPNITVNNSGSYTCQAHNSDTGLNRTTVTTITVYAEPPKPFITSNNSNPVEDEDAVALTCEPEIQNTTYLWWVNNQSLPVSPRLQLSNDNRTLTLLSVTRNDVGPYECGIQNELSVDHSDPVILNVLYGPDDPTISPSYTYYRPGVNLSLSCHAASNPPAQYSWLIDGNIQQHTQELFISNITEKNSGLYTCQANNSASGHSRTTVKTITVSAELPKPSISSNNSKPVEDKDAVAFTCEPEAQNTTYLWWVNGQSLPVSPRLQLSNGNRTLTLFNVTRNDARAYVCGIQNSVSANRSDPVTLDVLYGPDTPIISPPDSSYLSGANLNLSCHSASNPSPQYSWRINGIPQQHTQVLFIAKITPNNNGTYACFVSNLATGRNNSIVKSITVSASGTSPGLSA
The experiment can be described thus: CEA ELISA, COS-7 supernatant, anti-human kappa or anti-CPG2 reporter antibody.
Experimental: For the CEA ELISA each well of a 96 well immunoplate (NUNC MAXISORB™) was coated with 50 ng CEA in 50 mM carbonate/bicarbonate coating buffer pH9.6 (buffer capsules—Sigma C3041) and incubated at 4° overnight. The plate was washed three times with PBS-TWEEN™ (PBS+ 0.05% TWEEN™ 20) and then blocked 150 μl per well of 1% BSA in PBS-TWEEN™ for 1 hour at room temperature. The plate was washed three times with PBS-TWEEN™, 100 μl of test sample added per well and incubated at room temperature for 2 hours. […] The plate was washed three times with PBS-TWEEN™ and then once more with PBS. To detect binding, add 100 μl per well of developing solution (one capsule of phosphate-citrate buffer—Sigma P4922—dissolved in 100 ml H_2O to which is added one 30 mg tablet o-phenylenediamine dihydrochloride—Sigma P8412) and incubated for up to 15 minutes. The reaction was stopped by adding 75 μl 2M H_2SO_4, and absorbance read at 490 nm.
The CEA ELISA using an anti CPG2 reporter antibody was essentially as above but instead of HRPO-labelled goat anti-human kappa antibody an 1/1000 dil. of a rabbit anti-CPG2 polyclonal sera was added, in 1% BSA in PBS-TWEEN™ and incubated at room temperature on a rocking platform for at 2 hours. The plate was washed three times with PBS-TWEEN™. […] The reaction was stopped by adding 75 μl 2M H_2SO_4, and absorbance read at 490 nm.

Experiment [12] deals with T2, CEA on LoVo colorectal tumour cells (CEA positive) (human, UniProt P06731 35-685, GPI anchor on the C-terminal residue; heavily N-glycosylated on cells).
T2 construct: also called CEA positive LoVo cells; LoVo, CEA bearing, tumour cells
T2 sequence: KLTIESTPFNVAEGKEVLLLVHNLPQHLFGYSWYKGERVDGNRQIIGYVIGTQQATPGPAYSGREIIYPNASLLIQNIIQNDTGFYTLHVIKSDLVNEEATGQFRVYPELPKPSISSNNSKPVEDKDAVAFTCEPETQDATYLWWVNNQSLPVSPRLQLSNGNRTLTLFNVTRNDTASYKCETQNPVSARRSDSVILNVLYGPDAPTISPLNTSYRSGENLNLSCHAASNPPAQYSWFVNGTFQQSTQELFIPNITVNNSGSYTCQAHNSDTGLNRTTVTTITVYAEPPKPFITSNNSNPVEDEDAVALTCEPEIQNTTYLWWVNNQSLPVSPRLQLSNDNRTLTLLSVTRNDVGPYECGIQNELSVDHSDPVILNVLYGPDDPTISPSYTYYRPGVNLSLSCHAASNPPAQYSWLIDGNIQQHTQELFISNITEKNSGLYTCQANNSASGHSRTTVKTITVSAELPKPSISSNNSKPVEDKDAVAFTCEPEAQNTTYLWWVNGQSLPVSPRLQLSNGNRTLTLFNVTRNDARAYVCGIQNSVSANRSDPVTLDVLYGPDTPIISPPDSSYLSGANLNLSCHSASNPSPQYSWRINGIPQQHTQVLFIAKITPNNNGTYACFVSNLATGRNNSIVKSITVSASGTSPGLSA
The experiment can be described thus: cell based ELISA on fixed cells, anti-human kappa HRP detection, OD 490 nm.
Experimental: 100 µl of 6% formaldehyde was diluted in DMEM and left for 1 hour at 4°. Plates were centrifuged and washed 3 times in PBS containing 0.05% Tween™ by immersion soaking (first two washes for 2 minutes and the final wash for 5 minutes).
Colour was allowed to develop for about 5 min, stopped with 75 μl per well of 2M H_2SO_4 and OD read at 490 nm.

For the molecule `O=C(O)CC[C@H](NC(=O)Oc1ccc(N(CCCl)CCCl)cc1)C(=O)O` [PGP, N-(4-[N,N-bis(2-chloroethyl)amino]-phenoxycarbonyl)-L-glutamic acid], the anti-tumour activity result in experiment [1] is “significant anti-tumour activity”; in experiment [4] it was “no significant anti-tumour activity”; in experiment [9], “significant anti-tumour activity”; in experiment [10], “no significant anti-tumour activity”. Besides, in [2] (60 mg/kg doses of prodrug, FIG. 5), the tumour growth delay is not below 11 days. The “median tumour volume relative to initial size” value in experiment [2] (60 mg/kg doses of prodrug, day 16 post-dose, FIG. 5) amounted to 3 times their initial size. The anti-tumour effect result in experiment [2] (PGP i.p., 3 doses at hourly intervals, 40-80 mg kg^-1, vs controls) is “significant anti-tumour effect”; in experiment [3], “significant anti-tumour effect”. The “conversion of prodrug into active drug by cells” value in experiment [5] is recorded as “unable to convert the prodrug”; in [8] (transfected LoVo cells), “can convert the PGP prodrug into the more potent active drug”. In addition, the IC50 is approximately 200 µM in [6] and approximately 1 µM in experiment [7] (read-out: IC50 (concentration required to inhibit cell growth by 50%)). For the same molecule, the “sensitivity of transfected compared to non-transfected HCT116 cells in terms of cell killing” value in [7] is “over 100 fold”. In experiment [8] (transfected vs non-transfected LoVo), the “sensitivity of transfected compared to non-transfected LoVo cells in terms of cell killing” value is reported as “over 100 fold”.

B1: (A5B7 Fab-CPG2)2 fusion protein (other)
heavy: EVKLVESGGGLVQPGGSLRLSCATSGFTFTDYYMNWVRQPPGKALEWLGFIGNKANGYTTEYSASVKGRFTISRDKSQSILYLQMNTLRAEDSATYYCTRDRGLRFYFDYWGQGTTLTVSSASTKGPSVFPLAPCSRSTSESTAALGCLVKDYFPEPVTVSWNSGALTSGVHTFPAVLQSSGLYSLSSVVTVPSSNFGTQTYTCNVDHKPSNTKVDKTVGGGGSGGGGSGGGGSQKRDNVLFQAATDEQPAVIKTLEKLVNIETGTGDAEGIAAAGNFLEAELKNLGFTVTRSKSAGLVVGDNIVGKIKGRGGKNLLLMSHMDTVYLKGILAKAPFRVEGDKAYGPGIADDKGGNAVILHTLKLLKEYGVRDYGTITVLFNTDEEKGSFGSRDLIQEEAKLADYVLSFEPTSAGDEKLSLGTSGIAYVQVQITGKASHAGAAPELGVNALVEASDLVLRTMNIDDKAKNLRFQWTIAKAGQVSNIIPASATLNADVRYARNEDFDAAMKTLEERAQQKKLPEADVKVIVTRGRPAFNAGEGGKKLVDKAVAYYKEAGGTLGVEERTGGGTDAAYAALSGKPVIESLGLPGFGYHSDKAEYVDISAIPRRLYMAARLIMDLGAGK
light: QTVLSQSPAILSASPGEKVTMTCRASSSVTYIHWYQQKPGSSPKSWIYATSNLASGVPARFSGSGSGTSYSLTISRVEAEDAATYYCQHWSSKPPTFGGGTKLEIKRTVAAPSVFIFPPSDEQLKSGTASVVCLLNNFYPREAKVQWKVDNALQSGNSQESVTEQDSKDSTYSLSSTLTLSKADYEKHKVYACEVTHQGLSSPVTKSFNRGEC
notes: Two Fab-CPG2 units dimerise non-covalently through CPG2 (about 180 kDa); Tested as cell culture supernatant (COS-7 or recombinant Colo320DM / LoVo cells); also called (A5B7-CPG2 R6)2 fusion protein; (A5B7-CPG2)2 fusion protein
For the molecule B1, the binding result in [11] and in [12] was “binds” in each case.
